Activity calls are given as the source filed them. No cut-off for these calls is given here.
Tests used:
Type in all cases: cell-based
[1] = Inhibition of thapsigargin activated calcium-release activated channel in rat RBL2H3 mast cells assessed as decrease in calcium influx by Fluo-4NW calcium assay
RBL-2H3 = assay: Cytotoxicity against rat RBL2H3 mast cells at 100 uM by CCK8 cell viability assay; conditions: rbl-2h3, 100 µM
[2] = (§1) Inhibition of thapsigargin activated calcium-release activated channel in rat RBL2H3 mast cells assessed as decrease in TNFalpha secretion measured 4 hrs after extracellular calcium exposure by ELISA; conditions: RBL-2H3, 4 h
Rattus norvegicus [3] = organism: Rattus norvegicus; assay: as §1
Rattus norvegicus [4] = organism: Rattus norvegicus; assay: Inhibition of thapsigargin activated calcium-release activated channel in rat RBL2H3 mast cells assessed as decrease in calcium influx at 10 to 100 uM by Fluo-4NW calcium assay
Rattus norvegicus [5] = organism: Rattus norvegicus; assay: Inhibition of thapsigargin activated calcium-release activated channel in rat RBL2H3 mast cells assessed as decrease in calcium influx at 30 uM by Fluo-4NW calcium assay
Rattus norvegicus [6] = organism: Rattus norvegicus; assay: Inhibition of thapsigargin activated calcium-release activated channel in rat RBL2H3 mast cells assessed as decrease in calcium influx at 100 uM by Fluo-4NW calcium assay
[7] = (§2) Inhibition of thapsigargin activated calcium-release activated channel in rat RBL2H3 mast cells assessed as decrease in release of beta-hexosaminidase preincubated for 30 mins followed by extracellular calcium addition by ELISA method; conditions: RBL-2H3
Rattus norvegicus [8] = organism: Rattus norvegicus; assay: as §2
[9] = (§3) Inhibition of thapsigargin activated calcium-release activated channel in rat RBL2H3 mast cells assessed as decrease in nuclear translocation of NFAT-c1 measured 30 mins after extracellular calcium exposure by ELISA; conditions: RBL-2H3, 0.5 h
Rattus norvegicus [10] = organism: Rattus norvegicus; assay: as §3
[11] = Rattus norvegicus, RBL-2H3, read-out: IC50

SMILES	IC50 [1, 11]	Activity (RBL-2H3)	also measured
O=C(Nc1cc(F)nc(F)c1)c1nn(Cc2ccc(Cl)cc2Cl)c2c1CCC2	650 nM	Non-Toxic	
Cc1cc(NC(=O)c2nn(Cc3ccc(Cl)cc3Cl)c3c2CCC3)ccn1	> 30000 nM	Non-Toxic	
O=C(Nc1ccnc(F)c1)c1nn(Cc2ccc(Cl)cc2Cl)c2c1CCCC2	1530 nM	Non-Toxic	
O=C(Nc1c(F)cccc1Cl)c1nn(Cc2ccc(Cl)cc2Cl)c2ccccc12	3230 nM	Non-Toxic	IC50 [2]: 740 nM; inhibition (Rattus norvegicus [3]): Dose-dependent effect; inhibition (Rattus norvegicus [4]): Active
O=C(Nc1ccccc1F)c1nn(Cc2ccc(Cl)cc2Cl)c2ccccc12	> 30000 nM	Non-Toxic	inhibition (Rattus norvegicus [5]): 44 to 48%; IC50 [2]: 280 nM; inhibition (Rattus norvegicus [3]): Dose-dependent effect
O=C(Nc1nn(Cc2ccc(Cl)cc2Cl)c2ccccc12)c1c(F)cccc1F		Non-Toxic	inhibition (Rattus norvegicus [6]): < 50%
Cc1cc(NC(=O)c2nn(Cc3ccc(Cl)cc3Cl)c3c2CCCCC3)ccn1	> 30000 nM	Non-Toxic	
Cc1cc(C(=O)Nc2nn(Cc3ccc(Cl)cc3Cl)c3ccccc23)ccn1	> 30000 nM	Non-Toxic	inhibition (Rattus norvegicus [5]): 44 to 48%
Cc1cc(NC(=O)c2nn(Cc3ccc(Cl)cc3Cl)c3ccccc23)ccn1		Non-Toxic	inhibition (Rattus norvegicus [6]): < 50%
O=C(Nc1nn(Cc2ccc(Cl)cc2Cl)c2ccccc12)c1cc(F)nc(F)c1		Non-Toxic	inhibition (Rattus norvegicus [6]): < 50%
O=C(Nc1cc(F)nc(F)c1)c1nn(Cc2ccc(Cl)cc2Cl)c2ccccc12	> 30000 nM	Non-Toxic	inhibition (Rattus norvegicus [5]): 46%
O=C(Nc1ccnc(F)c1)c1nn(Cc2ccc(Cl)cc2Cl)c2c1CCCCC2		Non-Toxic	IC50 [1]: Nd(Insoluble)
O=C(Nc1ccc(F)cc1F)c1nn(Cc2ccc(Cl)cc2Cl)c2ccccc12	2330 nM	Non-Toxic	inhibition (Rattus norvegicus [4]): Active
O=C(Nc1ccnc(F)c1)c1nn(Cc2ccc(Cl)cc2Cl)c2c1CCC2	990 nM	Non-Toxic	
O=C(Nc1nn(Cc2ccc(Cl)cc2Cl)c2ccccc12)c1ccc(F)cc1F		Non-Toxic	inhibition (Rattus norvegicus [6]): < 50%
Cc1nnsc1C(=O)Nc1nn(Cc2ccc(Cl)cc2Cl)c2ccccc12	> 30000 nM	Non-Toxic	inhibition (Rattus norvegicus [5]): 44 to 48%
O=C(Nc1ccnc(F)c1)c1nn(Cc2ccc(Cl)cc2Cl)c2ccccc12	670 nM	Non-Toxic	EC50 [7]: 860 nM; inhibition (Rattus norvegicus [8]): Dose-dependent effect; IC50 [9]: 1600 nM; inhibition (Rattus norvegicus [10]): Dose-dependent effect; inhibition (Rattus norvegicus [3]): Dose-dependent effect; inhibition (Rattus norvegicus [4]): Active
O=C(Nc1c(F)cccc1F)c1nn(Cc2ccc(Cl)cc2Cl)c2ccccc12	1510 nM	Non-Toxic	IC50 [2]: 470 nM; inhibition (Rattus norvegicus [3]): Dose-dependent effect; inhibition (Rattus norvegicus [4]): Active
O=C(Nc1cc(F)nc(F)c1)c1nn(Cc2ccc(Cl)cc2Cl)c2c1CCCCC2	12800 nM	Non-Toxic	
O=C(Nc1cnns1)c1nn(Cc2ccc(Cl)cc2Cl)c2ccccc12		Non-Toxic	inhibition (Rattus norvegicus [6]): < 50%
O=C(Nc1nn(Cc2ccc(Cl)cc2Cl)c2ccccc12)c1ccccc1F	29000 nM	Non-Toxic	inhibition (Rattus norvegicus [4]): Active
O=C(Nc1nn(Cc2ccc(Cl)cc2Cl)c2ccccc12)c1ccnc(F)c1		Non-Toxic	inhibition (Rattus norvegicus [6]): < 50%
Cc1cc(NC(=O)c2nn(Cc3ccc(Cl)cc3Cl)c3c2CCCC3)ccn1		Non-Toxic	IC50 [1]: Nd(Insoluble)
O=C(Nc1cc(F)nc(F)c1)c1nn(Cc2ccc(Cl)cc2Cl)c2c1CCCC2	1340 nM	Non-Toxic	

Source: ChEMBL document CHEMBL4002603, “Structure-activity relationship study and discovery of indazole 3-carboxamides as calcium-release activated calcium channel blockers” (Bioorg Med Chem Lett, 2017)
